Test results: PMC5218480 (PLoS ONE, 2017)

System: MV-4-11 cells
Test: Gene expression microarray analysis (Affymetrix PrimeView) and GSEA
Format: cell-based, human
Design: RFU PODN (11730768_x_at) / Fold change /veh PODN (11730768_x_at) / RFU LINC00158 (11744669_a_at) / Fold change /veh LINC00158 (11744669_a_at) / RFU DUSP10 (11751237_a_at) / Fold change /veh DUSP10 (11751237_a_at) / RFU ID3 (11757404_x_at) / Fold change /veh ID3 (11757404_x_at) / RFU PLEKHG5 (11737974_s_at) / Fold change /veh PLEKHG5 (11737974_s_at) / RFU LRRC4B (11730491_at) / Fold change /veh LRRC4B (11730491_at) / RFU GIMAP4 (11747438_a_at) / Fold change /veh GIMAP4 (11747438_a_at) / RFU KRT8 (11758183_x_at) / Fold change /veh KRT8 (11758183_x_at) / RFU CNN1 (11734310_a_at) / Fold change /veh CNN1 (11734310_a_at) / RFU VPS37D (11726825_at) / Fold change /veh VPS37D (11726825_at) / RFU C10orf10 (11716522_x_at) / Fold change /veh C10orf10 (11716522_x_at) / RFU KIR2DL2 /// KIR2DL4 /// KIR2DL5A /// KIR2DL5B /// KIR2DS1 /// KIR2DS2 /// KIR2DS3 /// KIR2DS4 /// KIR3DL3 /// KIR3DL3 /// KIR3DS1 (11738374_at) / Fold change /veh KIR2DL2 /// KIR2DL4 /// KIR2DL5A /// KIR2DL5B /// KIR2DS1 /// KIR2DS2 /// KIR2DS3 /// KIR2DS4 /// KIR3DL3 /// KIR3DL3 /// KIR3DS1 (11738374_at) / RFU C1QL1 (11718748_at) / Fold change /veh C1QL1 (11718748_at) / RFU TMPRSS4 (11747572_a_at) / Fold change /veh TMPRSS4 (11747572_a_at) / RFU HAMP (11756126_x_at) / Fold change /veh HAMP (11756126_x_at) / RFU RNFT2 (11725882_a_at) / Fold change /veh RNFT2 (11725882_a_at) / RFU NR4A2 (11747474_a_at) / Fold change /veh NR4A2 (11747474_a_at) / RFU ABCC12 (11746883_a_at) / Fold change /veh ABCC12 (11746883_a_at) / RFU TMEM136 (11760407_x_at) / Fold change /veh TMEM136 (11760407_x_at) / RFU CLDN22 /// WWC2 (11732394_at) / Fold change /veh CLDN22 /// WWC2 (11732394_at) / RFU HLA-DPB1 (11760878_x_at) / Fold change /veh HLA-DPB1 (11760878_x_at) / RFU SPINT1 (11716480_a_at) / Fold change /veh SPINT1 (11716480_a_at) / RFU GAP43 (11754022_s_at) / Fold change /veh GAP43 (11754022_s_at) / RFU A4GNT (11735810_at) / Fold change /veh A4GNT (11735810_at) / RFU PRB3 (11715151_x_at) / Fold change /veh PRB3 (11715151_x_at) / RFU TUBB4B (11761932_at) / Fold change /veh TUBB4B (11761932_at) / RFU CAPN14 (11732068_a_at) / Fold change /veh CAPN14 (11732068_a_at) / RFU TMCC2 (11721928_a_at) / Fold change /veh TMCC2 (11721928_a_at) / RFU IRGQ (11745062_a_at) / Fold change /veh IRGQ (11745062_a_at) / RFU FAM174B (11720279_a_at) / Fold change /veh FAM174B (11720279_a_at) / RFU TMPRSS4 (11748680_a_at) / Fold change /veh TMPRSS4 (11748680_a_at) / RFU FAM212B (11763350_a_at) / Fold change /veh FAM212B (11763350_a_at) / RFU PLEKHG5 (11743358_a_at) / Fold change /veh PLEKHG5 (11743358_a_at) / RFU ZSCAN30 (11745921_a_at) / Fold change /veh ZSCAN30 (11745921_a_at) / RFU CMKLR1 (11741424_a_at) / Fold change /veh CMKLR1 (11741424_a_at) / RFU LOC101060620 /// MAPK8IP1 (11723275_at) / Fold change /veh LOC101060620 /// MAPK8IP1 (11723275_at) / RFU SPTSSB (11747773_x_at) / Fold change /veh SPTSSB (11747773_x_at) / RFU PRSS12 (11739890_at) / Fold change /veh PRSS12 (11739890_at) / RFU BIN1 (11741810_x_at) / Fold change /veh BIN1 (11741810_x_at) / RFU WNT11 (11732464_a_at) / Fold change /veh WNT11 (11732464_a_at) / RFU C10orf10 (11716521_a_at) / Fold change /veh C10orf10 (11716521_a_at) / RFU C5orf56 (11738089_at) / Fold change /veh C5orf56 (11738089_at) / RFU CYB561 (11721691_x_at) / Fold change /veh CYB561 (11721691_x_at) / RFU ANKRD19P (11752326_a_at) / Fold change /veh ANKRD19P (11752326_a_at) / RFU OR2T12 /// OR2T33 /// OR2T8 (11738714_s_at) / Fold change /veh OR2T12 /// OR2T33 /// OR2T8 (11738714_s_at) / RFU VCAN (11748164_a_at) / Fold change /veh VCAN (11748164_a_at) / RFU JSRP1 (11732532_at) / Fold change /veh JSRP1 (11732532_at) / RFU KRTAP10-11 (11738290_x_at) / Fold change /veh KRTAP10-11 (11738290_x_at) / RFU MYO3A (11730013_a_at) / Fold change /veh MYO3A (11730013_a_at) / RFU EBF3 (11725865_a_at) / Fold change /veh EBF3 (11725865_a_at) / RFU CAMK2N1 (11719241_x_at) / Fold change /veh CAMK2N1 (11719241_x_at) / RFU C5orf56 (11738088_a_at) / Fold change /veh C5orf56 (11738088_a_at) / RFU OLFML3 (11715873_a_at) / Fold change /veh OLFML3 (11715873_a_at) / RFU LOC100653217 /// NTM (11731650_a_at) / Fold change /veh LOC100653217 /// NTM (11731650_a_at) / RFU MAPK11 (11762145_a_at) / Fold change /veh MAPK11 (11762145_a_at) / RFU FIZ1 (11724087_x_at) / Fold change /veh FIZ1 (11724087_x_at) / RFU OASL (11726364_x_at) / Fold change /veh OASL (11726364_x_at) / RFU SOX15 (11748057_x_at) / Fold change /veh SOX15 (11748057_x_at) / RFU CD79A (11719716_a_at) / Fold change /veh CD79A (11719716_a_at) / RFU HIST1H1D (11736915_at) / Fold change /veh HIST1H1D (11736915_at) / RFU CASKIN2 (11723855_a_at) / Fold change /veh CASKIN2 (11723855_a_at) / RFU LOC730098 (11760151_x_at) / Fold change /veh LOC730098 (11760151_x_at) / RFU OR4N2 (11742367_at) / Fold change /veh OR4N2 (11742367_at) / RFU PRRT2 (11749266_a_at) / Fold change /veh PRRT2 (11749266_a_at) / RFU SNX32 (11753110_a_at) / Fold change /veh SNX32 (11753110_a_at) / RFU CDHR5 (11726645_a_at) / Fold change /veh CDHR5 (11726645_a_at) / RFU RCAN1 (11760418_a_at) / Fold change /veh RCAN1 (11760418_a_at) / RFU FAM167A (11723789_a_at) / Fold change /veh FAM167A (11723789_a_at) / RFU FAM26E (11764081_at) / Fold change /veh FAM26E (11764081_at) / RFU ISYNA1 (11749810_s_at) / Fold change /veh ISYNA1 (11749810_s_at) / RFU ACY1 (11761880_at) / Fold change /veh ACY1 (11761880_at) / RFU 11764098_at / Fold change /veh 11764098_at / RFU SAMD14 (11745864_x_at) / Fold change /veh SAMD14 (11745864_x_at) / RFU NPB (11741838_a_at) / Fold change /veh NPB (11741838_a_at) / RFU TMPRSS6 (11731388_a_at) / Fold change /veh TMPRSS6 (11731388_a_at) / RFU KRTAP10-2 (11738614_at) / Fold change /veh KRTAP10-2 (11738614_at) / RFU ARHGAP8 /// PRR5-ARHGAP8 (11727945_x_at) / Fold change /veh ARHGAP8 /// PRR5-ARHGAP8 (11727945_x_at) / RFU KRTAP5-7 /// NADSYN1 (11734609_at) / Fold change /veh KRTAP5-7 /// NADSYN1 (11734609_at) / RFU RASL12 (11751679_a_at) / Fold change /veh RASL12 (11751679_a_at) / RFU CDKN2B (11736163_a_at) / Fold change /veh CDKN2B (11736163_a_at) / RFU PRF1 (11729649_at) / Fold change /veh PRF1 (11729649_at) / RFU, ZNF638 /// ZNF638-IT1 / Fold change vs veh, ZNF638 /// ZNF638-IT1 / RFU, PANK3 / Fold change vs veh, PANK3 / RFU, SH3YL1 / Fold change vs veh, SH3YL1 / RFU, ZEB2 / Fold change vs veh, ZEB2 / RFU, NRIP1 / Fold change vs veh, NRIP1 / RFU, PTTG1IP / Fold change vs veh, PTTG1IP / RFU, CAPN2 / Fold change vs veh, CAPN2 / RFU, MED14 / Fold change vs veh, MED14 / RFU, SNORA58 / Fold change vs veh, SNORA58 / RFU, C1orf63 / Fold change vs veh, C1orf63 / RFU, LRRFIP1 / Fold change vs veh, LRRFIP1 / RFU, NDUFAF7 / Fold change vs veh, NDUFAF7 / RFU, SLC12A2 / Fold change vs veh, SLC12A2 / RFU, IBTK / Fold change vs veh, IBTK / RFU, ESF1 / Fold change vs veh, ESF1 / Fold change vs veh, TMEM50B / RFU, TAOK1 / Fold change vs veh, TAOK1 / RFU, ACBD3 / Fold change vs veh, ACBD3 / RFU, TMA16 / Fold change vs veh, TMA16 / RFU, RWDD3 / Fold change vs veh, RWDD3 / RFU, BCAT1 / Fold change vs veh, BCAT1 / RFU, EDEM3 / Fold change vs veh, EDEM3 / RFU, TMEM33 / Fold change vs veh, TMEM33 / RFU, WDR75 / Fold change vs veh, WDR75 / RFU, AHCTF1 / Fold change vs veh, AHCTF1 / RFU, TFRC / Fold change vs veh, TFRC / RFU, ZDHHC17 / Fold change vs veh, ZDHHC17 / RFU, NOM1 / Fold change vs veh, NOM1 / RFU, ARL8B / Fold change vs veh, ARL8B / RFU, ZBTB11 / Fold change vs veh, ZBTB11 / RFU, TAMM41 / Fold change vs veh, TAMM41 / RFU, KIAA1704 /// LOC100996395 / Fold change vs veh, KIAA1704 /// LOC100996395 / RFU, ING1 / Fold change vs veh, ING1 / RFU, TRMT61B / Fold change vs veh, TRMT61B / RFU, FUBP3 / Fold change vs veh, FUBP3 / RFU, TP53 / Fold change vs veh, TP53 / RFU, TNKS2 / Fold change vs veh, TNKS2 / RFU, ZFP14 / Fold change vs veh, ZFP14 / RFU, ACTR2 / Fold change vs veh, ACTR2 / RFU, PPP3R1 / Fold change vs veh, PPP3R1 / RFU, PIK3R1 / Fold change vs veh, PIK3R1 / RFU, HNRNPA1 / Fold change vs veh, HNRNPA1 / RFU, RNF170 / Fold change vs veh, RNF170 / RFU, ZNF28 / Fold change vs veh, ZNF28 / RFU, RNGTT / Fold change vs veh, RNGTT / RFU, OGT / Fold change vs veh, OGT / RFU, BRD1 / Fold change vs veh, BRD1 / RFU, MARS / Fold change vs veh, MARS / RFU, ZNF655 / Fold change vs veh, ZNF655 / RFU, FAHD1 / Fold change vs veh, FAHD1 / RFU, BDP1 / Fold change vs veh, BDP1 / RFU, LRRCC1 / Fold change vs veh, LRRCC1 / RFU, ARID1A / Fold change vs veh, ARID1A / RFU, ZNF146 / Fold change vs veh, ZNF146 / RFU, ZNF330 / Fold change vs veh, ZNF330 / RFU, GPN3 / Fold change vs veh, GPN3 / RFU, C9orf123 / Fold change vs veh, C9orf123 / RFU, N4BP2L2 / Fold change vs veh, N4BP2L2 / RFU, ARFIP1 / Fold change vs veh, ARFIP1 / RFU, FAM179B / Fold change vs veh, FAM179B / RFU, BCL10 / Fold change vs veh, BCL10 / RFU, UHRF1BP1L / Fold change vs veh, UHRF1BP1L / RFU, BET1 / Fold change vs veh, BET1 / RFU, CNOT2 / Fold change vs veh, CNOT2 / RFU, ZNF268 / Fold change vs veh, ZNF268 / Fold change vs veh, ZNF507 / RFU, DGCR2 / Fold change vs veh, DGCR2 / RFU, WDSUB1 / Fold change vs veh, WDSUB1 / Fold change vs veh, HSP90B1 /// MIR3652 / RFU, ADSS / Fold change vs veh, ADSS / RFU, GK / Fold change vs veh, GK / RFU, ZNF148 / Fold change vs veh, ZNF148 / RFU, TAF9 / Fold change vs veh, TAF9 / RFU, SLC1A5 / Fold change vs veh, SLC1A5 / RFU, SLMO2 / Fold change vs veh, SLMO2 / RFU, ABCC4 / Fold change vs veh, ABCC4 / RFU, LOC101060439 /// RAP1B / Fold change vs veh, LOC101060439 /// RAP1B / RFU, RFX7 / Fold change vs veh, RFX7 / RFU, GTPBP10 / Fold change vs veh, GTPBP10 / RFU, CNEP1R1 / Fold change vs veh, CNEP1R1 / RFU, BIVM-ERCC5 /// ERCC5 / Fold change vs veh, BIVM-ERCC5 /// ERCC5 / RFU, ILF3 / Fold change vs veh, ILF3 / RFU 11762660_at / Fold change /veh 11762660_at / RFU VCAN (11757783_s_at) / Fold change /veh VCAN (11757783_s_at) / RFU DDX43 (11728927_at) / Fold change /veh DDX43 (11728927_at) / RFU KRT8 (11758188_x_at) / Fold change /veh KRT8 (11758188_x_at) / RFU NKD1 (11759106_at) / Fold change /veh NKD1 (11759106_at) / RFU SRD5A1 (11742802_a_at) / Fold change /veh SRD5A1 (11742802_a_at) / RFU TPSAB1 /// TPSB2 (11721975_s_at) / Fold change /veh TPSAB1 /// TPSB2 (11721975_s_at) / RFU GSTM3 (11746129_a_at) / Fold change /veh GSTM3 (11746129_a_at) / RFU IL23R (11737362_x_at) / Fold change /veh IL23R (11737362_x_at) / RFU TMEM51 (11727254_a_at) / Fold change /veh TMEM51 (11727254_a_at) / RFU PIWIL2 (11732686_x_at) / Fold change /veh PIWIL2 (11732686_x_at) / RFU ORM1 (11744905_x_at) / Fold change /veh ORM1 (11744905_x_at) / RFU CCDC152 (11743942_at) / Fold change /veh CCDC152 (11743942_at) / RFU ECM1 (11717891_a_at) / Fold change /veh ECM1 (11717891_a_at) / RFU IL23R (11748794_a_at) / Fold change /veh IL23R (11748794_a_at) / RFU TNFAIP8L3 (11732012_x_at) / Fold change /veh TNFAIP8L3 (11732012_x_at) / RFU MBOAT4 (11741988_at) / Fold change /veh MBOAT4 (11741988_at) / RFU 11764193_at / Fold change /veh 11764193_at / RFU TMEM53 (11763286_at) / Fold change /veh TMEM53 (11763286_at) / RFU MAGEB2 (11727129_at) / Fold change /veh MAGEB2 (11727129_at) / RFU TMEM200A (11744735_a_at) / Fold change /veh TMEM200A (11744735_a_at) / RFU CCDC152 (11751479_a_at) / Fold change /veh CCDC152 (11751479_a_at) / RFU FAM211A (11726209_a_at) / Fold change /veh FAM211A (11726209_a_at) / RFU RGS16 (11746705_a_at) / Fold change /veh RGS16 (11746705_a_at) / RFU VCAN (11755009_s_at) / Fold change /veh VCAN (11755009_s_at) / RFU RHOB (11743442_s_at) / Fold change /veh RHOB (11743442_s_at) / RFU RGS16 (11720943_a_at) / Fold change /veh RGS16 (11720943_a_at) / RFU RGS16 (11720944_at) / Fold change /veh RGS16 (11720944_at) / RFU, VPS4B / Fold change vs veh, VPS4B / RFU, CREB1 / Fold change vs veh, CREB1 / RFU, DNAJC13 / Fold change vs veh, DNAJC13 / RFU, GNAQ / Fold change vs veh, GNAQ / RFU, CDK5R1 / Fold change vs veh, CDK5R1 / RFU, ZRANB3 / Fold change vs veh, ZRANB3 / RFU, CUL4A / Fold change vs veh, CUL4A / RFU, CCNY / Fold change vs veh, CCNY / RFU, UFL1 / Fold change vs veh, UFL1 / RFU, COG3 / Fold change vs veh, COG3 / RFU, DIAPH2 / Fold change vs veh, DIAPH2 / RFU, SKA2 / Fold change vs veh, SKA2 / RFU, AFF3 / Fold change vs veh, AFF3 / RFU, LMF1 / Fold change vs veh, LMF1 / RFU, IPO11 / Fold change vs veh, IPO11 / RFU, DFFB / Fold change vs veh, DFFB / RFU, FOXP1 / Fold change vs veh, FOXP1 / RFU, CARD8 / Fold change vs veh, CARD8 / RFU, STRN3 / Fold change vs veh, STRN3 / RFU, ADK / Fold change vs veh, ADK / RFU, RASSF2 / Fold change vs veh, RASSF2 / RFU, WIPF1 / Fold change vs veh, WIPF1 / RFU, LARP1B / Fold change vs veh, LARP1B / RFU, RASA1 / Fold change vs veh, RASA1 / RFU, RB1 / Fold change vs veh, RB1 / RFU, PPFIA1 / Fold change vs veh, PPFIA1 / RFU, MAT2A / Fold change vs veh, MAT2A / RFU, CCT5 / Fold change vs veh, CCT5 / RFU, WDR92 / Fold change vs veh, WDR92 / RFU, CUX1 / Fold change vs veh, CUX1 / RFU, TTC7A / Fold change vs veh, TTC7A / RFU, TMEM135 / Fold change vs veh, TMEM135 / RFU, DEPTOR / Fold change vs veh, DEPTOR / RFU, CPM / Fold change vs veh, CPM / RFU, DNAJB6 / Fold change vs veh, DNAJB6 / RFU, CACNA2D3 / Fold change vs veh, CACNA2D3 / RFU, DTX4 / Fold change vs veh, DTX4 / RFU, TFCP2 / Fold change vs veh, TFCP2 / RFU, GMCL1 /// GMCL1P1 / Fold change vs veh, GMCL1 /// GMCL1P1 / RFU, AEBP2 / Fold change vs veh, AEBP2 / RFU, SNHG1 /// SNORD22 /// SNORD25 /// SNORD26 /// SNORD27 /// SNORD28 /// SNORD29 /// SNORD31 / Fold change vs veh, SNHG1 /// SNORD22 /// SNORD25 /// SNORD26 /// SNORD27 /// SNORD28 /// SNORD29 /// SNORD31 / Fold change (Aza/veh), C12orf56 (ProbeSet 11735607_a_at) / Fold change (ACY-1035/veh), C12orf56 (ProbeSet 11735607_a_at) / Fold change (Aza/veh), FGFR1OP (ProbeSet 11751329_s_at) / Fold change (ACY-1035/veh), FGFR1OP (ProbeSet 11751329_s_at) / Fold change (Aza/veh), VPS36 (ProbeSet 11739960_a_at) / Fold change (ACY-1035/veh), VPS36 (ProbeSet 11739960_a_at) / RFU SYPL1 (11715823_x_at) / Fold change /veh SYPL1 (11715823_x_at) / RFU IGFBP7 (11715501_s_at) / Fold change /veh IGFBP7 (11715501_s_at) / RFU REEP3 (11722064_at) / Fold change /veh REEP3 (11722064_at) / RFU IGLL1 (11728026_x_at) / Fold change /veh IGLL1 (11728026_x_at): dose or concentration left out as unconfirmed
Settings: ProbeSet 11721611_a_at; LIST D

Nc1ncn([C@@H]2O[C@H](CO)[C@@H](O)[C@H]2O)c(=O)n1 [azacitidine]
Fold change vs veh, IPO11: 0.66
